Assay results as given in patent publication EP0189755A1, “Pharmaceutical composition” (F. HOFFMANN-LA ROCHE AG, priority 1985, dated 1986).

Legend:
P388 leukemia cells = assay: Antitumor effects against intraperitoneally implanted P388 leukemia in mice (increase in life span, survival, body weight); conditions: for dose ILS30: dose of 5'-DFUR or 5-FU giving ILS30; for dose ILS30 / dose ILSmax: GMP 100 mg/kg/day in the combinations, unit not given in Table 4; for dose ILSmax: dose of 5'-DFUR or 5-FU giving ILSmax
Procedure: BDF1 male mice weighing 21 to 23 g were used as experimental animals. P388 leukemia cells were implanted intraperitoneally into the mice. Seven days after the implantation, ascites were collected and diluted with saline to prepare the suspension containing 10^6 P388 leukemia cells in 0.05 ml. The mice were intraperitoneally implanted on day 0 with 10^6 P388 cells. Each group contained 6 mice. 5'-DFUR and GMP were dissolved in saline, alone or combined with each other. The test compounds were administered intraperitoneally from day 1 to day 5. The antitumor effects were evaluated by the increase in life span over control (ILS) calculated by the following formula: [formula] T: Mean survival time (days) in the test drug groups C: Mean survival time (days) in the control group administered intraperitoneally with saline alone
The safety of the drug was evaluated by the therapeutic ratio; the dose ILSmax / the dose ILS30.
In a manner analogous to that described in (1) above except that 5'-DFCR was used instead of 5'-DFUR, the antitumor effects thereof was tested as a referential example.

Acute toxicity = format: in vivo, male ICR mice
Procedure: Groups of 5 weeks old male ICR mice were treated intraperitoneally with 5'-DFUR and GMP at the dosage given in the- following Table 6. Each mice group contained 5 mice. Two weeks after, the number of died mice were counted.

[1] = 5'-DFCR 28 mg/kg/day, without GMP
[2] = 5'-DFCR 55 mg/kg/day, without GMP
[3] = 5'-DFCR 110 mg/kg/day, without GMP
[4] = 5'-DFCR 220 mg/kg/day, without GMP

Q: What does the source list for `C[C@H]1O[C@@H](n2cc(F)c(N)nc2=O)[C@H](O)[C@@H]1O` [5'-DFCR]?
A: Survival days (mean±SD) (P388 leukemia cells; [1]): 10.7 ± 1.5 days; T/C (P388 leukemia cells; [1]): 111%; Survival days (mean±SD) (P388 leukemia cells; [2]): 10.0 ± 1.7 days; T/C (P388 leukemia cells; [2]): 104%; Survival days (mean±SD) (P388 leukemia cells; [3]): 10.3 ± 0.5 days; T/C (P388 leukemia cells; [3]): 107%; Survival days (mean±SD) (P388 leukemia cells; [4]): 12.0 ± 1.7 days; T/C (P388 leukemia cells; [4]): 125%

Q: What does the source list for `C[C@H]1O[C@@H](n2cc(F)c(=O)[nH]c2=O)[C@H](O)[C@@H]1O` [5'-DFUR, 5'-deoxy-5-fluorouri-dine]?
A: Survival days (mean±SD) (P388 leukemia cells; 5'-DFUR 250 mg/kg/day): 13.3 ± 0.8 days; T/C (P388 leukemia cells; 5'-DFUR 250 mg/kg/day): 139%; ILS (P388 leukemia cells; 5'-DFUR alone 2 mg/kg/day i.p., day 1 to day 5): 0%; ILS (P388 leukemia cells; 5'-DFUR alone 4 mg/kg/day i.p., day 1 to day 5): 1%; ILS (P388 leukemia cells; 5'-DFUR alone 8 mg/kg/day i.p., day 1 to day 5): 8%; ILS (P388 leukemia cells; 5'-DFUR alone 16 mg/kg/day i.p., day 1 to day 5): 15%; ILS (P388 leukemia cells; 5'-DFUR alone 32 mg/kg/day i.p., day 1 to day 5): 21%; ILS (P388 leukemia cells; 5'-DFUR alone 63 mg/kg/day i.p., day 1 to day 5): 21%; ILS (P388 leukemia cells; 5'-DFUR alone 125 mg/kg/day i.p., day 1 to day 5): 31%; ILS (P388 leukemia cells; 5'-DFUR alone 250 mg/kg/day i.p., day 1 to day 5): 48%; ILS (P388 leukemia cells; 5'-DFUR alone 500 mg/kg/day i.p., day 1 to day 5): 24%; dose ILS30 (P388 leukemia cells): 125; dose ILSmax (P388 leukemia cells): 250; ILSmax (P388 leukemia cells; dose series of 5'-DFUR i.p., GMP at 100 mg/kg/day in the combination group): 48%; number of died mice/number of tested mice (Acute toxicity; mouse, in vivo): 0/5

Q: For `O=c1[nH]cc(F)c(=O)[nH]1` [5-FU, 5-fluorouracil], which “dose ILS30” value (P388 leukemia cells) is on record?
A: 0.75

Q: And the “dose ILSmax” value (P388 leukemia cells)?
A: 20

Q: Which “Survival days (mean±SD)” value (P388 leukemia cells; nucleotide alone 100 mg/kg/day) does the source give for `Nc1ncnc2c1ncn2[C@@H]1O[C@H](COP(=O)(O)O)[C@@H](O)[C@H]1O` [AMP, adenosine-5'-monophosphate] here?
A: 9.5 ± 1.9 days

Q: And the T/C (P388 leukemia cells; nucleotide alone 100 mg/kg/day)?
A: 99%

Q: With `Nc1nc2c(ncn2[C@@H]2O[C@H](COP(=O)(O)O)[C@@H](O)[C@H]2O)c(=O)[nH]1` [GMP, guanosine-5'-monophosphate] as the compound, how does the ILS (P388 leukemia cells; GMP alone 100 mg/kg/day i.p. (5'-DFUR 0)) read?
A: -3%

Q: And the ILS (P388 leukemia cells; GMP alone 300 mg/kg/day i.p. (5'-DFUR 0))?
A: 5%

Q: And the ILS (P388 leukemia cells; GMP alone 500 mg/kg/day i.p. (5'-DFUR 0))?
A: 8%

Q: What about the ILS (P388 leukemia cells; GMP alone 1000 mg/kg/day i.p. (5'-DFUR 0)) of the same compound?
A: 1%

Q: And the “influence on ILS” value (P388 leukemia cells; GMP alone (Table 3))?
A: no influence observed

Q: And the “Survival days (mean±SD)” value (P388 leukemia cells; nucleotide alone 100 mg/kg/day)?
A: 8.8 ± 0.8 days

Q: And the T/C (P388 leukemia cells; nucleotide alone 100 mg/kg/day)?
A: 92%

Q: What about the “number of died mice/number of tested mice” value (Acute toxicity; GMP 2000 mg/kg, 5'-DFUR 0, intraperitoneally, counted two weeks after) of the same compound?
A: 0/5

Q: What about the “number of died mice/number of tested mice” value (Acute toxicity; GMP 4000 mg/kg, 5'-DFUR 0, intraperitoneally, counted two weeks after) of the same compound?
A: 1/5
